Like-named read-outs stand apart in the source and are kept apart here.
Tests used:
Format in all cases: cell-based
[1] = test system: Mycobacter fortuitum (NCTC 10394); assay: MIC, Mycobacter fortuitum; details: Mycolicibacterium fortuitum, NCTC10394, read-out: Minimum inhibitory concentrations (MICs), M. fortuitum
Experimental: (§1) The effects of compounds of the invention in relation to inhibiting the growth of various microorganisms was determined using methods known to those skilled in the art, for example in vitro methods as described in J. Med. Chem. 47, 2133-2156 (2004) and in vivo methods as described in J. Med. Microbiol. 46, 208-213 (1997), the disclosures of which documents are hereby incorporated by reference. In particular, minimum inhibitory concentrations (MICs) against microorganisms (e.g. S. Aureus, Streptococcus faecalis, Aspergillus niger, Candida albicans or Mycobacterium fortuitum) for compounds of the invention may be measured using procedures such as those described in A. J. Drummond and […] development of microbiological methods for phytochemical screening” Recent Res. Devel. […] The test wells on each 96 well microtitre plate were initially inoculated with culture medium (100 μL) using Mueller-Hinton Broth for antibacterial assays and Sabouraud Broth for antifungal assays. A solution of each test sample (100 μL) was added to one row of each plate and a series of doubling dilutions made for successive rows. Incubation was at 37° C. for antibacterial assay and 25° C. for antifungal assay. […] From the observed pattern of colour, the MIC was determined. All tests included sterility and growth controls.

[2] = test system: Streptococcus faecalis (NCTC 775); assay: MIC, Streptococcus faecalis; details: Enterococcus faecalis, NCTC775, read-out: Minimum inhibitory concentrations (MICs), St. faecalis
Experimental: as §1

[3] = test system: Candida albicans (NCPF3179); assay: MIC, Candida albicans; details: Candida albicans, NCPF3179, read-out: Minimum inhibitory concentrations (MICs), C. albicans
Experimental: as §1

[4] = test system: Staphylococcus aureus Strain 1 (BSAC04(1)) (Clinical isolate from Glasgow Royal Infirmary); assay: MIC, Staphylococcus aureus Strain 1; details: Staphylococcus aureus, read-out: Minimum inhibitory concentrations (MICs), S aureus 1
Experimental: The effects of compounds of the invention in relation to inhibiting the growth of various microorganisms was determined using methods known to those skilled in the art, for example in vitro methods as described in J. Med. Chem. 47, 2133-2156 (2004) and in vivo methods as described in J. Med. Microbiol. 46, 208-213 (1997), the disclosures of which documents are hereby incorporated by reference.
In particular, minimum inhibitory concentrations (MICs) against microorganisms (e.g. S. Aureus, Streptococcus faecalis, Aspergillus niger, Candida albicans or Mycobacterium fortuitum) for compounds of the invention may be measured using procedures such as those described in A. J. Drummond and R. D. Waigh “The development of microbiological methods for phytochemical screening” Recent Res. Devel. Phytochem. 4, 143-152 (2000), the disclosures of which document are hereby incorporated by reference.
Sample dilutions were typically prepared by dissolving the test sample (2 mg) in sterile water (10 mL) to provide a working concentration of 200 μg/ml. The test wells on each 96 well microtitre plate were initially inoculated with culture medium (100 μL) using Mueller-Hinton Broth for antibacterial assays and Sabouraud Broth for antifungal assays. A solution of each test sample (100 μL) was added to one row of each plate and a series of doubling dilutions made for successive rows. Incubation was at 37° C. for antibacterial assay and 25° C. for antifungal assay. […] From the observed pattern of colour, the MIC was determined. All tests included sterility and growth controls.

[5] = test system: Aspergillus niger (IMI 1745); assay: MIC, Aspergillus niger; details: Aspergillus niger, read-out: Minimum inhibitory concentrations (MICs), A. niger
Experimental: as §1

[6] = test system: Staphylococcus aureus Strain 2 (NCTC 6571); assay: MIC, Staphylococcus aureus Strain 2; details: Staphylococcus aureus, NCTC6571, read-out: Minimum inhibitory concentrations (MICs), S. aureus 2
Experimental: as §1

[7] = value in parentheses, na = not active

SMILES | MIC [1, 7] [µg/mL] | MIC ([1]; value outside parentheses) [µM] | MIC [2, 7] [µg/mL] | MIC ([2]; value outside parentheses) [µM] | MIC [3, 7] [µg/mL] | MIC ([3]; value outside parentheses) [µM] | MIC [4, 7] [µg/mL] | MIC ([4]; value outside parentheses) [µM] | MIC [5, 7] [µg/mL] | MIC ([5]; value outside parentheses) [µM] | MIC [6, 7] [µg/mL] | MIC ([6]; value outside parentheses) [µM]
CC(C)CCc1sc(NC(=O)c2cc(NC(=O)c3ccc(/C=C/c4cc5ccccc5nc4On4nnc5ccccc54)cc3)cn2C)nc1C(=O)NCCN1CCOCC1 [Example 18, 2-[({4-[(4-{(E)-2-[2-(1H-1,2,3-Benzotriazol-1-yloxy)-3-quinolinyl]ethenyl}-benzoyl)amino]-1-methyl-1H-pyrrol-2-yl}carbonyl)amino]-5-isopentyl-N-[2-(4-morpholinyl)ethyl]-1,3-thiazole-4-carboxamide] | 100 | 169 |  |  | 100 | 169 |  |  |  |  |  | 
COc1ccc(/C=C/c2ccc3cc(C(=O)Nc4cc(C(=O)Nc5cc(C(=O)NCCN6CCOCC6)n(C)c5)n(C)c4)ccc3n2)cc1 [Example 23, 2-[(E)-2-(4-Methoxyphenyl)ethenyl]-N-[1-methyl-5-({[1-methyl-5-({[2-(4-morpholinyl)ethyl]amino}carbonyl)-1H-pyrrol-3-yl]amino}carbonyl)-1H-pyrrol-3-yl]-6-quinolinecarboxamide] | 100 | 129 | 25 | 32 | 100 | 129 | 4 | 5.2 | 50 | 64 |  | 
CSc1ccc(/C=C/c2ccc3cc(C(=O)Nc4cc(C(=O)Nc5cc(C(=O)NCCN6CCOCC6)n(C)c5)n(C)c4)ccc3n2)cc1 [Example 24, N-[1-Methyl-5-({[1-methyl-5-({[2-(4-morpholinyl)ethyl]amino}carbonyl)-1H-pyrrol-3-yl]amino}carbonyl)-1H-pyrrol-3-yl]-2-{(E)-2-[4-(methylsulfanyl)-phenyl]ethenyl}-6-quinolinecarboxamide] |  |  | 100 | 26 | 100 | 126 | 4 | 5.1 | 100 | 126 | 100 | 126

Continued, values first:

MIC [1, 7] [µg/mL] | MIC ([1]; value outside parentheses) [µM] | MIC [2, 7] [µg/mL] | MIC ([2]; value outside parentheses) [µM] | MIC [3, 7] [µg/mL] | MIC ([3]; value outside parentheses) [µM] | MIC [4, 7] [µg/mL] | MIC ([4]; value outside parentheses) [µM] | MIC [5, 7] [µg/mL] | MIC ([5]; value outside parentheses) [µM] | MIC [6, 7] [µg/mL] | MIC ([6]; value outside parentheses) [µM] | SMILES
100 | 116 | 12.5 | 15 | 100 | 116 | 4 | 5.3 |  |  |  |  | Cn1cc(NC(=O)c2cc(NC(=O)c3cc(/C=C/c4cnc5ccccc5c4)cn3C)cn2C)cc1C(=O)NCCN1CCOCC1 [Example 10, 1-Methyl-N-[1-methyl-5-({[1-methyl-5-({[2-(4-morpholinyl)ethyl]amino}-carbonyl)-1H-pyrrol-3-yl]amino}carbonyl)-1H-pyrrol-3-yl]-4-[(E)-2-(3-quinolinyl)ethenyl]-1H-pyrrole-2-carboxamide]
100 | 122 |  |  | 50 | 61 |  |  | 100 | 122 |  |  | CC(C)CCc1sc(NC(=O)c2cc(NC(=O)c3ccc(/C=C/c4cnc5ccccc5c4)cc3)cn2C)nc1C(=O)NCCN1CCOCC1 [Example 16, 5-Isopentyl-2-({[1-methyl-4-({4-[(E)-2-(3-quinolinyl)ethenyl]benzoyl}amino)-1H-pyrrol-2-yl]carbonyl}amino)-N-[2-(4-morpholinyl)ethyl]-1,3-thiazole-4-carboxamide]
100 | 117 |  |  | 100 | 117 |  |  |  |  |  |  | CC(C)CCc1sc(NC(=O)c2cc(NC(=O)c3ccc(/C=C/c4cc5ccccc5nc4Cl)cc3)cn2C)nc1C(=O)NCCN1CCOCC1 [Example 17, 2-({[4-({4-[(E)-2-(2-Chloro-3-quinolinyl)ethenyl]benzoyl}amino)-1-methyl-1H-pyrrol-2-yl]carbonyl}amino)-5-isopentyl-N-[2-(4-morpholinyl)ethyl]-1,3-thiazole-4-carboxamide]
